Test results taken from PMC9186362, “Design and biological evaluation of substituted 5,7-dihydro-6H-indolo[2,3-c]quinolin-6-one as novel selective Haspin inhibitors” (Journal of Enzyme Inhibition and Medicinal Chemistry, 2022).

Assays:
Experiment in all cases: SelectScreen ZLYTE
Type in all cases: biochemical
Settings in all cases: ATP Km, read-out: Percentage of inhibition
AMPK A2/B1/G1 = AMPK A2/B1/G1 (Homo sapiens, UniProt P54646)
In short: (§1)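 Selectivity was assessed by testing 1 μM inhibitor on many kinases at once, recording how strongly each enzyme was inhibited in percent.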

HCK = target: T1, HCK (Homo sapiens, UniProt P08631)
T1 construct: purchased Life Technologies
T1 sequence (P08631 whole entry): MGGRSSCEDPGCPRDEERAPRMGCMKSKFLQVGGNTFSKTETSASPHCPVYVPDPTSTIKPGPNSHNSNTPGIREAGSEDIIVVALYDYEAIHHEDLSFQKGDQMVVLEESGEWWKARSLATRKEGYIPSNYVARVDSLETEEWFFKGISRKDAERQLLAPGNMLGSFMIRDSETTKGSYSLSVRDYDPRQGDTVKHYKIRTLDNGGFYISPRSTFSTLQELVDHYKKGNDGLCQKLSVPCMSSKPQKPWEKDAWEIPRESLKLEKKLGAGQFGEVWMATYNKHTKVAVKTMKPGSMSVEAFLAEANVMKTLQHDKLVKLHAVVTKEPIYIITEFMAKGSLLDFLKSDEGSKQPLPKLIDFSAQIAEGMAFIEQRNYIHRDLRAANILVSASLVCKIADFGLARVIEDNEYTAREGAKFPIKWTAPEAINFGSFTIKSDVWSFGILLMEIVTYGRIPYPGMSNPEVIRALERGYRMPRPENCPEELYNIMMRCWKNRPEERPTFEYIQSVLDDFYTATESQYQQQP
In short: as §1

ABL1 F317L = target: T2, ABL1 F317L (Homo sapiens, UniProt P00519, F317L)
T2 construct: purchased Life Technologies (SelectScreen)
In short: as §1

ROCK1 = target: T3, ROCK1 (Homo sapiens, UniProt Q13464)
T3 construct: purchased Life Technologies (SelectScreen Whole Panel service)
In short: as §1

SGKL (SGK3) = target: T4, SGKL (SGK3) (Homo sapiens, UniProt Q96BR1)
T4 construct: purchased Life Technologies (SelectScreen)
In short: as §1

PDGFRA (PDGFR alpha) = target: T5, PDGFRA (PDGFR alpha) (Homo sapiens, UniProt P16234)
T5 construct: purchased Life Technologies (SelectScreen Whole Panel service)
In short: as §1

EPHA4 = target: T6, EPHA4 (Homo sapiens, UniProt P54764)
T6 construct: purchased Life Technologies (SelectScreen)
In short: as §1

CDK5/p35 = target: T7, CDK5/p35 (Homo sapiens, UniProt Q00535)
T7 construct: purchased Life Technologies
In short: as §1

TEK (Tie2) = target: T8, TEK (Tie2) (Homo sapiens, UniProt Q02763)
T8 construct: purchased Life Technologies (SelectScreen Whole Panel service)
In short: as §1

EGFR (ErbB1) L861Q = target: T9, EGFR (ErbB1) L861Q (Homo sapiens, UniProt P00533, L861Q)
T9 construct: purchased Life Technologies (SelectScreen)
In short: as §1

ZAP70 = target: T10, ZAP70 (Homo sapiens, UniProt P43403)
T10 construct: purchased Life Technologies (SelectScreen Whole Panel)
T10 sequence (P43403 whole entry): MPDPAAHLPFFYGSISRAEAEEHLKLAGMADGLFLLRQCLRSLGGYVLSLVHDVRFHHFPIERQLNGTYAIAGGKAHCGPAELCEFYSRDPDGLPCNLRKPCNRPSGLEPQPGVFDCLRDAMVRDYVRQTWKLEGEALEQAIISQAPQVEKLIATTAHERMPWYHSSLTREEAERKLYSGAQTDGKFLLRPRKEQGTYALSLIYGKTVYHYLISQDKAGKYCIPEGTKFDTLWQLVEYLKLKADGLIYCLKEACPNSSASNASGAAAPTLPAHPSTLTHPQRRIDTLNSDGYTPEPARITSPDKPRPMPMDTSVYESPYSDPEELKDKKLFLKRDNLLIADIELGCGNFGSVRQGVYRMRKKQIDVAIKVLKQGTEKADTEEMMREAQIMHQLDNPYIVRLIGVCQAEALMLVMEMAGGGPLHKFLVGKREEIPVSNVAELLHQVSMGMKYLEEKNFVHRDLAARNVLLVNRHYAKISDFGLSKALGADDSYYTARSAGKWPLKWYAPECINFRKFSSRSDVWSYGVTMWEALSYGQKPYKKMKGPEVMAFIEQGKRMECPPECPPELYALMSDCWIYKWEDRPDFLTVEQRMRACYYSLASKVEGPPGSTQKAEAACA
In short: as §1

MAPK7 (ERK5) = target: T11, MAPK7 (ERK5) (Homo sapiens, UniProt Q13164)
T11 construct: purchased Life Technologies (SelectScreen)
In short: as §1

SYK = target: T12, SYK (Homo sapiens, UniProt P43405)
T12 construct: purchased Life Technologies (SelectScreen service)
In short: as §1

ITK = target: T13, ITK (Homo sapiens, UniProt Q08881)
T13 construct: purchased Life Technologies (SelectScreen Whole Panel)
In short: as §1

CDK5/p25 = target: T14, CDK5/p25 (Homo sapiens, UniProt Q00535)
T14 construct: purchased Life Technologies
In short: as §1

MAPK1 (ERK2) = MAPK1 (ERK2) (Homo sapiens, UniProt P28482)
In short: as §1

CSF1R (FMS) = CSF1R (FMS) (Homo sapiens, UniProt P07333)
In short: as §1

RPS6KA5 (MSK1) = target: T15, RPS6KA5 (MSK1) (Homo sapiens, UniProt O75582)
T15 construct: purchased Life Technologies
In short: as §1

PRKG2 (PKG2) = target: T16, PRKG2 (PKG2) (Homo sapiens, UniProt Q13237)
T16 construct: purchased Life Technologies
In short: as §1

SGK (SGK1) = target: T17, SGK (SGK1) (Homo sapiens, UniProt O00141)
T17 construct: purchased Life Technologies
T17 sequence (O00141 whole entry): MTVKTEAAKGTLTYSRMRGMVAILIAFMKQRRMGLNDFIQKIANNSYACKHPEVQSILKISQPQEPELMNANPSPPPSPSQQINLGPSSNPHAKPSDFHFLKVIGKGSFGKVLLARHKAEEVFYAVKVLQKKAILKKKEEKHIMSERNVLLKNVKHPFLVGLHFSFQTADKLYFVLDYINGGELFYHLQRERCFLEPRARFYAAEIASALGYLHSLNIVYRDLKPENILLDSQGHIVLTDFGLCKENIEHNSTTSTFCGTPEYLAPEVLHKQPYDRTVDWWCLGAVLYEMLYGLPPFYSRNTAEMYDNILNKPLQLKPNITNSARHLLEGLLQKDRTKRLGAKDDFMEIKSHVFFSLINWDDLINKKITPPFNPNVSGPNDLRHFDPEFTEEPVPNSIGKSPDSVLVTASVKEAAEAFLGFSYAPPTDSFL
In short: as §1

KIT V559D = target: T18, KIT V559D (Homo sapiens, UniProt P10721, V559D)
T18 construct: purchased Life Technologies
In short: as §1

PIM1 = target: T19, PIM1 (Homo sapiens, UniProt P11309)
T19 construct: purchased Life Technologies (SelectScreen service)
In short: as §1

MST1R (RON) = MST1R (RON) (Homo sapiens, UniProt Q04912)
In short: as §1

RPS6KA1 (RSK1) = target: T20, RPS6KA1 (RSK1) (Homo sapiens, UniProt Q15418)
T20 construct: purchased Life Technologies (SelectScreen service)
In short: as §1

PDGFRA D842V = target: T21, PDGFRA D842V (Homo sapiens, UniProt P16234, D842V)
T21 construct: purchased Life Technologies (SelectScreen Whole Panel service)
In short: as §1

PRKCB2 (PKC beta II) = PRKCB2 (PKC beta II) (Homo sapiens, UniProt P05771)
In short: as §1

KIT T670I = target: T22, KIT T670I (Homo sapiens, UniProt P10721, T670I)
T22 construct: purchased Life Technologies
In short: as §1

EPHA5 = target: T23, EPHA5 (Homo sapiens, UniProt P54756)
T23 construct: purchased Life Technologies (SelectScreen Whole Panel service)
T23 sequence (P54756 25-1037): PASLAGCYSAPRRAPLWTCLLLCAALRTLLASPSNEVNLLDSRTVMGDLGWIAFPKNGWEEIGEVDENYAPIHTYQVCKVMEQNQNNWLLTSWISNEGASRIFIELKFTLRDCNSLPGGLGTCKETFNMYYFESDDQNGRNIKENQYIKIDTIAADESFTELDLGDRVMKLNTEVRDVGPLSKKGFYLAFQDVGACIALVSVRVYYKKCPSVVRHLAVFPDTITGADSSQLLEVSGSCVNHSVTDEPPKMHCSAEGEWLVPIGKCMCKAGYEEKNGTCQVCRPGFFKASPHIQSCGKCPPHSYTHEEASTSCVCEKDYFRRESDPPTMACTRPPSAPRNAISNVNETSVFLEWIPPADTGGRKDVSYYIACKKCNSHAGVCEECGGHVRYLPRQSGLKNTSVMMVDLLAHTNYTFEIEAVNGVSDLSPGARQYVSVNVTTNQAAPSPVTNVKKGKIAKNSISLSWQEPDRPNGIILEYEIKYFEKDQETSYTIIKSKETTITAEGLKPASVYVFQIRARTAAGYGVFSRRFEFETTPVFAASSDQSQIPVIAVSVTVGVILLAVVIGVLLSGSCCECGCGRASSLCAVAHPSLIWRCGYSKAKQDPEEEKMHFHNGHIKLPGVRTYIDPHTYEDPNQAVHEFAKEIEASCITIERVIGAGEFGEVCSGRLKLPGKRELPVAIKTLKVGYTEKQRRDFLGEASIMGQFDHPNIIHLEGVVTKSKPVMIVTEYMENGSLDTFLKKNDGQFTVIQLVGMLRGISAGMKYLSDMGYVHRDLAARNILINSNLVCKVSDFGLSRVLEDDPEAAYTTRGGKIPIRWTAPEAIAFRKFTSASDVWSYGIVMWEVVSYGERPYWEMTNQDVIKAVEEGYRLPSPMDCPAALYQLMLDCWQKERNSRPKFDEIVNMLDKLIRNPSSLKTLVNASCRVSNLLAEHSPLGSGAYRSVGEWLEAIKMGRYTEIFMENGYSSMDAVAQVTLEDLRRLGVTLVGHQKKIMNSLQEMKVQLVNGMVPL
In short: as §1

EGFR (ErbB1) T790M L858R = EGFR (ErbB1) T790M L858R (Homo sapiens, UniProt P00533, L858R/T790M)
Sequence of EGFR (ErbB1) T790M L858R (P00533 25-1210 T790M/L858R): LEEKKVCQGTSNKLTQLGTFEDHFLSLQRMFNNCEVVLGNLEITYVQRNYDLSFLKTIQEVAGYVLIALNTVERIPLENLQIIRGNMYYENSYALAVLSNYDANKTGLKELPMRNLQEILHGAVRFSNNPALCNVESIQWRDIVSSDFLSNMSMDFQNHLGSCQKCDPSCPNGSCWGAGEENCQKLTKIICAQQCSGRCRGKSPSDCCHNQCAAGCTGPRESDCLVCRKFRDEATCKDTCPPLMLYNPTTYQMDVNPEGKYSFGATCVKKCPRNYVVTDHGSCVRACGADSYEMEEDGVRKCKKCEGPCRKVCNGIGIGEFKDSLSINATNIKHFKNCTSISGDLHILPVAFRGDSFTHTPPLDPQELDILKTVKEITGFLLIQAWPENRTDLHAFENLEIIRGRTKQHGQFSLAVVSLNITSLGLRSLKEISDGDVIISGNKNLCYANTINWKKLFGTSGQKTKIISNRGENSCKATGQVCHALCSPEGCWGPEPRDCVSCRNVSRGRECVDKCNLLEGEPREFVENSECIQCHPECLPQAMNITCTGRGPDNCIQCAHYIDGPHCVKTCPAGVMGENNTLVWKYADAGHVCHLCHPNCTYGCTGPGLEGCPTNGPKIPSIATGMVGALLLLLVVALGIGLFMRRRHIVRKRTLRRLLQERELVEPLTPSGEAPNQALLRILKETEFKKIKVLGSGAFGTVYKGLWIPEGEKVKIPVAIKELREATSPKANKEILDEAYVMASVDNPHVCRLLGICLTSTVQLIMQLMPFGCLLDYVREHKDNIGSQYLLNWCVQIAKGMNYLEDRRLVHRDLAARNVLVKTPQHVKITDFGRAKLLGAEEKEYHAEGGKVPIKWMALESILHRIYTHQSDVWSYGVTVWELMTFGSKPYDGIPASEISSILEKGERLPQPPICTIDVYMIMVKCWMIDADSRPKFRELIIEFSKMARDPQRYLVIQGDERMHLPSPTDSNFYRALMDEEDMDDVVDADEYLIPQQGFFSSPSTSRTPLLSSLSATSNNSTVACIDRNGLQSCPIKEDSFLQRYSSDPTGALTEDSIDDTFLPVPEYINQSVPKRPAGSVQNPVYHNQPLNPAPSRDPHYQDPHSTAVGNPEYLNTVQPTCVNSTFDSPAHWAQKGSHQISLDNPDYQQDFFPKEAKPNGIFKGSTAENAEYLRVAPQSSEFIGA
In short: as §1

JAK2 JH1 JH2 V617F = target: T24, JAK2 JH1 JH2 V617F (Homo sapiens, UniProt O60674, V617F)
T24 construct: JAK2 JH1 JH2; purchased Life Technologies
T24 sequence (O60674 532-1132 V617F limits assumed): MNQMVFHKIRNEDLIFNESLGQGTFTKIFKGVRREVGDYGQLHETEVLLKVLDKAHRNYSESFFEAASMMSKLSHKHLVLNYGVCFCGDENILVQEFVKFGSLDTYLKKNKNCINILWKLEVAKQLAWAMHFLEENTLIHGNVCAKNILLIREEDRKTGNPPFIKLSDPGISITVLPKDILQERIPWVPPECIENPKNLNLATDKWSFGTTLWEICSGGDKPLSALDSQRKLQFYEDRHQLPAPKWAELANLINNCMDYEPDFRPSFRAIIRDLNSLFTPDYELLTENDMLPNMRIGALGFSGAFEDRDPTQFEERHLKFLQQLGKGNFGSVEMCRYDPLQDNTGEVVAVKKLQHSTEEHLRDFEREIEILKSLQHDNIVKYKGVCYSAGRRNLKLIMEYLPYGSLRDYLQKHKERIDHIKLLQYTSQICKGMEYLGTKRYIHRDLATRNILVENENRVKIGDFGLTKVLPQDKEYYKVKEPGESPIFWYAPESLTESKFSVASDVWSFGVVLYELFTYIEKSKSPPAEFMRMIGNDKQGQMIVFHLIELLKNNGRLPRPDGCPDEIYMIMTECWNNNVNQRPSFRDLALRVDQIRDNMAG
In short: as §1

KIT = KIT (Homo sapiens, UniProt P10721)
In short: as §1

MET (cMet) = MET (cMet) (Homo sapiens, UniProt P08581)
In short: as §1

MAPK12 (p38 gamma) = MAPK12 (p38 gamma) (Homo sapiens, UniProt P53778)
Sequence of MAPK12 (p38 gamma) (P53778 whole entry): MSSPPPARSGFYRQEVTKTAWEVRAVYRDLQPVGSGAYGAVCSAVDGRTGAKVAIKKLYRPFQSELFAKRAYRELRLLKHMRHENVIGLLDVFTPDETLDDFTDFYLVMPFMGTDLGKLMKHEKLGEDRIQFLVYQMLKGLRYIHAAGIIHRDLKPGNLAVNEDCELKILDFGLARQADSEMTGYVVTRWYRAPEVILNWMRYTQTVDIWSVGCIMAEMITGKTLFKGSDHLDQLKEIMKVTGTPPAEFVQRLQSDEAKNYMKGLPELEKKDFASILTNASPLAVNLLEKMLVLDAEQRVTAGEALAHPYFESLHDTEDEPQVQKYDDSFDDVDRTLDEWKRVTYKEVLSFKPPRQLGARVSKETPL
In short: as §1

PRKCD (PKC delta) = PRKCD (PKC delta) (Homo sapiens, UniProt Q05655)
In short: as §1

PAK1 = PAK1 (Homo sapiens, UniProt Q13153)
In short: as §1

RPS6KA2 (RSK3) = target: T25, RPS6KA2 (RSK3) (Homo sapiens, UniProt Q15349)
T25 construct: purchased Life Technologies (SelectScreen service)
In short: as §1

EPHB3 = target: T26, EPHB3 (Homo sapiens, UniProt P54753)
T26 construct: purchased Life Technologies (SelectScreen Whole Panel)
In short: as §1

PDGFRA V561D = target: T27, PDGFRA V561D (Homo sapiens, UniProt P16234, V561D)
T27 construct: purchased Life Technologies (SelectScreen service)
In short: as §1

COc1ccc2[nH]c3c(=O)[nH]c4ccc(O)cc4c3c2c1 [Compound 55, 2-Hydroxy-10-methoxy-5,7-dihydro-6H-indolo[2,3-c]quinolin-6-one]
inhibition at 1 µM (AMPK A2/B1/G1): 58%
inhibition at 1 µM (HCK): 38%
inhibition at 1 µM (ABL1 F317L): 9%
inhibition at 1 µM (ROCK1): 11%
inhibition at 1 µM (SGKL (SGK3)): 9%
inhibition at 1 µM (PDGFRA (PDGFR alpha)): 43%
inhibition at 1 µM (EPHA4): 7%
inhibition at 1 µM (CDK5/p35): 32%
inhibition at 1 µM (TEK (Tie2)): 13%
inhibition at 1 µM (EGFR (ErbB1) L861Q): 9%
inhibition at 1 µM (ZAP70): 0%
inhibition at 1 µM (MAPK7 (ERK5)): 8%
inhibition at 1 µM (SYK): 82%
inhibition at 1 µM (ITK): 49%
inhibition at 1 µM (CDK5/p25): 33%
inhibition at 1 µM (MAPK1 (ERK2)): 19%
inhibition at 1 µM (CSF1R (FMS)): 63%
inhibition at 1 µM (RPS6KA5 (MSK1)): 28%
inhibition at 1 µM (PRKG2 (PKG2)): 37%
inhibition at 1 µM (SGK (SGK1)): 29%
inhibition at 1 µM (KIT V559D): 37%
inhibition at 1 µM (PIM1): 71%
inhibition at 1 µM (MST1R (RON)): 6%
inhibition at 1 µM (RPS6KA1 (RSK1)): 89%
inhibition at 1 µM (PDGFRA D842V): 49%
inhibition at 1 µM (PRKCB2 (PKC beta II)): 13%
inhibition at 1 µM (KIT T670I): 4%
inhibition at 1 µM (EPHA5): 18%
inhibition at 1 µM (EGFR (ErbB1) T790M L858R): 20%
inhibition at 1 µM (JAK2 JH1 JH2 V617F): 36%
inhibition at 1 µM (KIT): 6%
inhibition at 1 µM (MET (cMet)): 7%
inhibition at 1 µM (MAPK12 (p38 gamma)): 19%
inhibition at 1 µM (PRKCD (PKC delta)): 7%
inhibition at 1 µM (PAK1): 6%
inhibition at 1 µM (RPS6KA2 (RSK3)): 88%
inhibition at 1 µM (EPHB3): -9%
inhibition at 1 µM (PDGFRA V561D): 79%
